Where two headings read alike, the source gives them in different places.
What was measured:
Type in all cases: biochemical
KAT6A Full length enzyme = KAT6A Full length enzyme (Homo sapiens (Human), UniProt Q92794); assay: KAT6A assay (SAMDI-MS acetylation of H3 1-21 peptide); conditions: replicate number in parentheses
[1] = molecular target: KAT7+BRPF1+EAF6+ING5 4 protein complex (Homo sapiens (Human), UniProt O95251); assay: KAT7 BRPF1 assay (SAMDI-MS acetylation of H3 1-21 peptide); conditions: Morrison equation fit; replicate number in parentheses
[2] = molecular target: KAT7+JADE1+EAF6+ING5 4 protein complex (Homo sapiens (Human), UniProt O95251); assay: KAT7 JADE1 assay (SAMDI-MS acetylation of H3 1-21 peptide); conditions: replicate number in parentheses
KAT8 Full length enzyme = KAT8 Full length enzyme (Homo sapiens (Human), UniProt Q9H7Z6); assay: KAT8 assay (SAMDI-MS acetylation of H3 1-21 peptide); conditions: replicate number in parentheses
Sequence of KAT8 Full length enzyme (Q9H7Z6 whole entry): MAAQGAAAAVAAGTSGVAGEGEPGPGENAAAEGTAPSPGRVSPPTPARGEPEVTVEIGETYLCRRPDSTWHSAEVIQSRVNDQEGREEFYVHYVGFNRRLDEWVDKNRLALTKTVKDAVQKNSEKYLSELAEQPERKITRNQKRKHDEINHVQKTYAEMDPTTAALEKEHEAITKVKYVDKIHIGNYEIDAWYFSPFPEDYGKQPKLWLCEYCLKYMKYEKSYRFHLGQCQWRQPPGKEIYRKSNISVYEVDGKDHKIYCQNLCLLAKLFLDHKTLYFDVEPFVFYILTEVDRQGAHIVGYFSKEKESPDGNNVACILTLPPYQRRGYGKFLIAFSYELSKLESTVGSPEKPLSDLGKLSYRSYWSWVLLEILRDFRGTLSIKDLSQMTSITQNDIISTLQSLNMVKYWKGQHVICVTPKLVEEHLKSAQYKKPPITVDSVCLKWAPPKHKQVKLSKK

KAT5 Full length enzyme = KAT5 Full length enzyme (Homo sapiens (Human), UniProt Q92993); assay: KAT5 assay (SAMDI-MS acetylation of H4 1-21 peptide); conditions: replicate number in parentheses
Sequence of KAT5 Full length enzyme (Q92993 whole entry): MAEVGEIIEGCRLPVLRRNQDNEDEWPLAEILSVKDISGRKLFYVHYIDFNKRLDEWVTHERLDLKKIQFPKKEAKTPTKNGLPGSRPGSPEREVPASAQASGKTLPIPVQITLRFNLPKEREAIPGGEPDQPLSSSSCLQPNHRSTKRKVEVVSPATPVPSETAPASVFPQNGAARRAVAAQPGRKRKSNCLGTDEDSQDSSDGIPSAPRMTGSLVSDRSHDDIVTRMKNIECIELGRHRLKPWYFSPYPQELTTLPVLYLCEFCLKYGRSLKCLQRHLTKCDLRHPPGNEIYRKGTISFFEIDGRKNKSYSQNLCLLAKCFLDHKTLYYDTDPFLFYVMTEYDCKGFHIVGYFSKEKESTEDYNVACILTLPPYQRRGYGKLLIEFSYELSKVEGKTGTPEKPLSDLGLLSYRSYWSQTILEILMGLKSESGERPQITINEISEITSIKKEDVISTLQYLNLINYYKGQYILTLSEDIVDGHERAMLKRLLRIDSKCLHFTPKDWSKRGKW

[3] = molecular target: KAT7+BRPF2+EAF6+ING5 4 protein complex (Homo sapiens (Human), UniProt O95251); assay: KAT7 BRPF2 assay (SAMDI-MS acetylation of H3 1-21 peptide); conditions: replicate number in parentheses
[4] = Morrison equation fit, read-out: KAT6A Ki (nM) (replicate number)
[5] = Morrison equation fit, read-out: KAT7 JADE1 Ki (nM) (replicate number)
[6] = Morrison equation fit, read-out: KAT8 Ki (nM) (replicate number)
[7] = Morrison equation fit, read-out: KAT5 Ki (nM) (replicate number)
[8] = Morrison equation fit, read-out: KAT7 BRPF2 Ki (nM) (replicate number)

Sequence of KAT6A Full length enzyme (Q92794 other isoform, or with tags, fused parts or gaps): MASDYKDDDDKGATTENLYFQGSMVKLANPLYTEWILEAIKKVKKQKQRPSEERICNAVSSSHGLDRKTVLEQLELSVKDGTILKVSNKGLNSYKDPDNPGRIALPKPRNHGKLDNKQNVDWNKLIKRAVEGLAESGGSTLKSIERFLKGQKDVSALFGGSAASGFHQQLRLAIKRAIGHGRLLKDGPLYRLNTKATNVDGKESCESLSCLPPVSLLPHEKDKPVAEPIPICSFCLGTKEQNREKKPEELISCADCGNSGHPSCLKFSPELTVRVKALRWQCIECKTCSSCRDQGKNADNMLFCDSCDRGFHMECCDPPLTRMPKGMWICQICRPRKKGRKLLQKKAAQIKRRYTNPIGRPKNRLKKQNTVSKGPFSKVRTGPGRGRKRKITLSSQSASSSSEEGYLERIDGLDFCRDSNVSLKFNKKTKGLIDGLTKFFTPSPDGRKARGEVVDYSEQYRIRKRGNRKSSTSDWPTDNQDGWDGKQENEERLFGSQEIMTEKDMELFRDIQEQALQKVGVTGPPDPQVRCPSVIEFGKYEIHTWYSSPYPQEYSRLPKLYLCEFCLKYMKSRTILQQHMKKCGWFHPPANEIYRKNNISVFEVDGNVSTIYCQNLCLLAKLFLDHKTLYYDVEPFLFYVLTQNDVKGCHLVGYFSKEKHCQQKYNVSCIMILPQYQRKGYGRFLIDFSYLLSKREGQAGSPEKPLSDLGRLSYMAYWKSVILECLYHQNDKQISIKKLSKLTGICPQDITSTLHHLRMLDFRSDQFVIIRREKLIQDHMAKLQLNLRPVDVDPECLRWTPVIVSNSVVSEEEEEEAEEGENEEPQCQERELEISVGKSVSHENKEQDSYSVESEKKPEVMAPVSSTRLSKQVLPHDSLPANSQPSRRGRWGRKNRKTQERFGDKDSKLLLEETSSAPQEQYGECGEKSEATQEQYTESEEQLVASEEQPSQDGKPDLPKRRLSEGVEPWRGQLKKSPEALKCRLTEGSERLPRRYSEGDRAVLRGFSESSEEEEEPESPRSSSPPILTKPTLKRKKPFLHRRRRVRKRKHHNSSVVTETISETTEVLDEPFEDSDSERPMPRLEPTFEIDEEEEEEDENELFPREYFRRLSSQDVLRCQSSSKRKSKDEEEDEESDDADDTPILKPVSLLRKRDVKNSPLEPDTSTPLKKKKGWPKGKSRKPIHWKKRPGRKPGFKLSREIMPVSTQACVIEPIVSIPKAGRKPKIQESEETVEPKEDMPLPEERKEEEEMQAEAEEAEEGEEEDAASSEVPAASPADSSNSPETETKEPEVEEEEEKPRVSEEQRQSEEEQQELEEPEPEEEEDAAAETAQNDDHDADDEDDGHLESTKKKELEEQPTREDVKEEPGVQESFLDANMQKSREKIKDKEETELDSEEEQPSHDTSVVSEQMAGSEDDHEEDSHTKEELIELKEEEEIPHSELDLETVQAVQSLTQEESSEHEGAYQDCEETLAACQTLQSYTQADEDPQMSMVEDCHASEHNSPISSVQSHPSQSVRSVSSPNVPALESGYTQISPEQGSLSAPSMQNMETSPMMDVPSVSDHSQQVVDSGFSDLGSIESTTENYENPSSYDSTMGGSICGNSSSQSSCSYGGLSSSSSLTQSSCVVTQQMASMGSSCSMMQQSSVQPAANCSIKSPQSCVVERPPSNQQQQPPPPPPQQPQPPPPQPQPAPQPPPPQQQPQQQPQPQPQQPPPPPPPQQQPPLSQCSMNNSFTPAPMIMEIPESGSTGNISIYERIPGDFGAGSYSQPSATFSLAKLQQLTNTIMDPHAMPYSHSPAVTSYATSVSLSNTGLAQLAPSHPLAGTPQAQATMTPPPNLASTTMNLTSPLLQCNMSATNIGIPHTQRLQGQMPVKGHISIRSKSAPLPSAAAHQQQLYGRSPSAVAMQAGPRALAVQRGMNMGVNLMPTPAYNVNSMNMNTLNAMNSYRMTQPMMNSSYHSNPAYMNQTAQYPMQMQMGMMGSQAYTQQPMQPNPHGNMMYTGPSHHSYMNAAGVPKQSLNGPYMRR

Work on COc1cc2c(NS(=O)(=O)c3c(OC)cc(-c4nccc(CN(C)C)n4)cc3OC)noc2cc1Nc1cc(C2CC2)n[nH]1 [Example 222, N-{6-[(3-cyclopropyl-1 H-pyrazol-5-yl)amino]-5-methoxy-1,2-benzoxazol-3-yl}-4-{4-[(dimethylamino)methyl]pyrimidin-2-yl}-2,6-dimethoxybenzene-1-sulfonamide] yielded a Ki (KAT6A Full length enzyme; [4]) of 0.5 nM, a Ki [1] of 4 nM and a Ki [2, 5] of 4.5 nM. The Ki (KAT8 Full length enzyme; [6]) was 958 nM and the Ki (KAT5 Full length enzyme; [7]) was 27.9 nM.

COc1cc2c(NS(=O)(=O)c3c(OC)cc(C4CCCCN4C)cc3OC)noc2cc1Nc1cc(C2CC2)n[nH]1 (racemic) [Example 155, N-{6-[(3-cyclopropyl-1 H-pyrazol-5-yl)amino]-5-methoxy-1,2-benzoxazol-3-yl}-2,6-dimethoxy-4-(1-methylpiperidin-2-yl)benzene-1-sulfonamide] gave a Ki (KAT6A Full length enzyme; [4]) of 2.9 nM, a Ki [1] of 14.9 nM and a Ki [2, 5] of 24.3 nM.

For COc1cc2c(NS(=O)(=O)c3c(OC)cccc3OC3CCC3)noc2cc1Nc1cc[nH]n1 [Example 33, 2-(cyclobutyloxy)-6-methoxy-N-{5-methoxy-6-[(1H-pyrazol-3-yl)amino]-1,2-benzoxazol-3-yl}benzene-1-sulfonamide], the Ki [1] was 15.4 nM, the Ki [2, 5] was 142 nM and the Ki (KAT8 Full length enzyme; [6]) was 733 nM. The Ki (KAT5 Full length enzyme; [7]) was 988 nM.

COc1cc2c(NS(=O)(=O)c3c(OC)cc(-c4ncc(C)cn4)cc3OC)noc2cc1Nc1cc(C2CC2)n[nH]1 [Example 213, N-{6-[(3-cyclopropyl-1H-pyrazol-5-yl)amino]-5-methoxy-1,2-benzoxazol-3-yl}-2,6-dimethoxy-4-(5-methylpyrimidin-2-yl)benzene-1-sulfonamide] was tested, and the Ki (KAT6A Full length enzyme; [4]) was 0.5 nM, the Ki [1] was 1.7 nM and the Ki [2, 5] was 3.9 nM. For the same compound, the Ki (KAT8 Full length enzyme; [6]) was 1570 nM.

In the case of COc1cc2c(NS(=O)(=O)c3c(OC)cccc3OC)noc2cc1Nc1cc(C)nn1CCO [Example 59, N-(6-{[1-(2-hydroxyethyl)-3-methyl-1H-pyrazol-5-yl]amino}-5-methoxy-1,2-benzoxazol-3-yl)-2,6-dimethoxybenzene-1-sulfonamide], the Ki [1] is reported as 580 nM and the Ki [2, 5] is reported as over 2870 nM.

COc1cc2c(NS(=O)(=O)c3c(OC)cc(N4CCN(C)C(=O)C4)cc3OC)noc2cc1Nc1cc(C2CC2)n[nH]1 [Example 254, N-{6-[(3-cyclopropyl-1H-pyrazol-5-yl)amino]-5-methoxy-1,2-benzoxazol-3-yl}-2,6-dimethoxy-4-(4-methyl-3-oxopiperazin-1-yl)benzene-1-sulfonamide] gave a Ki (KAT6A Full length enzyme; read-out: KAT6A Ki (nM) (replicate)) of 0.7 nM, a Ki ([3]; read-out: KAT7 BRPF2 Ki (nM) (replicate)) of 1.2 nM and a Ki ([2]; read-out: KAT7 JADE1 Ki (nM) (replicate)) of 6.6 nM. The Ki (KAT8 Full length enzyme; read-out: KAT8 Ki (nM) (replicate)) was 1260 nM and the Ki (KAT5 Full length enzyme; read-out: KAT5 Ki (nM) (replicate)) was 54.5 nM.

For CCOc1cccc(OC)c1S(=O)(=O)Nc1noc2cc(Nc3cc[nH]n3)c(OC)cc12 [Example 30, 2-ethoxy-6-methoxy-N-{5-methoxy-6-[(1H-pyrazol-3-yl)amino]-1,2-benzoxazol-3-yl}benzene-1-sulfonamide], the Ki (KAT6A Full length enzyme; [4]) was 0.5 nM, the Ki [3, 8] was 26 nM and the Ki [2, 5] was 248 nM. For the same compound, the Ki (KAT8 Full length enzyme; [6]) was 676 nM and the Ki (KAT5 Full length enzyme; [7]) was 605 nM.

CCOc1cccc(OC)c1S(=O)(=O)Nc1noc2cc(Nc3cc(C(C)C)[nH]n3)c(OC)cc12 [Example 83, 2-ethoxy-6-methoxy-N-(5-methoxy-6-{[5-(propan-2-yl)-1H-pyrazol-3-yl]amino}-1,2-benzoxazol-3-yl)benzene-1-sulfonamide] was tested, and the Ki (KAT6A Full length enzyme; [4]) was 2.9 nM, the Ki [3, 8] was 7.8 nM and the Ki [2, 5] was 60.1 nM. It also gave a Ki (KAT8 Full length enzyme; [6]) of 10400 nM and a Ki (KAT5 Full length enzyme; [7]) of 502 nM.

COc1cc2c(NS(=O)(=O)c3c(OC)cccc3OC)noc2cc1Nc1c(C#N)c(C)nn1C [Example 46, N-{6-[(4-cyano-1,3-dimethyl-1H-pyrazol-5-yl)amino]-5-methoxy-1,2-benzoxazol-3-yl}-2,6-dimethoxybenzene-1-sulfonamide] showed a Ki (KAT6A Full length enzyme; [4]) of over 377 nM, a Ki [1] of over 16100 nM and a Ki [2, 5] of over 9770 nM.

Compound CCOc1cccc(OC)c1S(=O)(=O)Nc1noc2cc(Nc3cc(C)[nH]n3)c(OC)cc12 [Example 99, 2-ethoxy-6-methoxy-N-{5-methoxy-6-[(5-methyl-1H-pyrazol-3-yl)amino]-1,2-benzoxazol-3-yl}benzene-1-sulfonamide] has a Ki (KAT6A Full length enzyme; [4]) of 0.5 nM, a Ki [3, 8] of 5.5 nM and a Ki [2, 5] of 82.6 nM. The Ki (KAT8 Full length enzyme; [6]) was 4840 nM and the Ki (KAT5 Full length enzyme; [7]) was 388 nM.
